The results in this text go back to patent US20250325498A1, “8-OHdG CONCENTRATION DECREASE ACCELERATOR, MALONDIALDEHYDE (MDA) CONCENTRATION DECREASE ACCELERATOR, ZIP4 CONCENTRATION INCREASE ACCELERATOR, OR SERUM ZINC CONCENTRATION INCREASE ACCELERATOR FOR JEJUNUM” (WATANABE OYSTER LABORATORY, CO., LTD., priority 2022, published 2025).

What all share (type): in vivo, rat
One assay relates to MDA. Nature of the assay: Jejunal MDA concentration in rats fed a low-zinc diet. To be noted: male Slc/SD rats, gavage on days 5 and 6, result in words, low-zinc diet group 6.67±0.47, standard diet group 4.53±0.26 mg/g of jejunum. Here is the method: (§1) Male Slc/SD rats (4 weeks old) were used as experimental animals. (Grouping and Diet)
(§2) The rats were divided into the following groups, and the diets were as follows.
(§3) Low-zinc diet group (n=6): Free intake of a low-zinc diet (The concentration of zinc in the low-zinc diet: 3.9 mg zinc/kg diet) Note that the zinc concentration of the low-zinc diet is assumed to be 2.5 mg zinc/kg diet to 10 mg zinc/kg diet.)
(§4) From the start date of the regular breeding, the standard diet was fed to the standard diet group, and the low-zinc diet was fed to four groups including the low-zinc diet group, the low-zinc diet+precipitation fraction group, the low-zinc diet+supernatant fraction group, and the low-zinc diet+synthetic DHMBA group. They were fed by free intake. On days 5 and 6, 0.5% methyl cellulose solution was given to the standard diet group and the low-zinc diet group by gavage administration. The Pacific oyster extraction supernatant fraction was given to the low-zinc diet+supernatant fraction group by gavage administration. The Pacific oyster extraction precipitation fraction was given to the low-zinc diet+precipitation fraction group by gavage administration. The synthetic DHMBA was given to the low-zinc diet+synthetic DHMBA group by gavage administration. […]
(§5) The jejunal SOD concentration, MDA concentration, 8-OHdG concentration, ZIP4 concentration, and serum zinc concentration were measured. […]

In a further assay the test system is ZIP4. Put plainly: Jejunal ZIP4 concentration in rats fed a low-zinc diet. To be noted: male Slc/SD rats, low-zinc diet 7 days, gavage on days 5 and 6, organs harvested 24 hours after day 6 dose; low-zinc diet group 4.38±0.33, standard diet group 8.89±0.71. Here is the method: as §1, §2, §3, §4, §5
In a further assay the test system is 8-OHdG. Put plainly: Jejunal 8-OHdG concentration in rats fed a low-zinc diet. To be noted: male Slc/SD rats, low-zinc diet 7 days, gavage on days 5 and 6 (0.5 mL/100 g B.W.), organs harvested 24 hours after day 6 dose; low-zinc diet group 9.31±0.29, standard diet group 6.82±0.56. Here is the method: as §1, §2, §3, §4, §5
The nature of assay [1]: Serum zinc concentration in rats fed a low-zinc diet. The settings on record: male Slc/SD rats, gavage on days 5 and 6, result in words. How it is done: as §1, §2, §3, §4, §5

As to `COc1c(O)cc(CO)cc1O` [synthetic DHMBA, 3,5-dihydroxy-4-methoxybenzyl alcohol], the “jejunal MDA concentration compared with low-zinc diet group” value in the assay on MDA was “decrease in MDA”. The “jejunal ZIP4 concentration” value in the assay with ZIP4 is 6.44 ± 0.76 pg/mg. Also, the “jejunal 8-OHdG concentration” value in the assay with 8-OHdG is on record as 7.81±0.49 ng/g of jejunum. Also, in assay [1], the “serum zinc concentration compared with low-zinc diet group” value was “significantly higher”.
